According to ChEMBL document CHEMBL1201862, “PubChem BioAssay data set” (2004):
The source made the active and inactive calls.

Columns and labels:
[1] = target: T1, Caspase-3 (Homo sapiens, UniProt P42574); assay type: functional;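 also: Dose-response selectivity test against caspase-3 for candidate inhibitors of sentrin-specific proteases (SENPs)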
T1 sequence (P42574 whole entry): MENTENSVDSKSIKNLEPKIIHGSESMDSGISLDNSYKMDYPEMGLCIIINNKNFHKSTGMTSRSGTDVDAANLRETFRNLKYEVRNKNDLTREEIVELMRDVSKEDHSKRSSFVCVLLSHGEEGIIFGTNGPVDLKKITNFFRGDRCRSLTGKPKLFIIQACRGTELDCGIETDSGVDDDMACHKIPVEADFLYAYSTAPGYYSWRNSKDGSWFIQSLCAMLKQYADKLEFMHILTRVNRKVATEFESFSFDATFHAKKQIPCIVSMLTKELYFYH

[2] = target: T2, Sentrin-specific protease 7 (Homo sapiens, UniProt Q9BQF6); assay type: functional;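 also: Luminescence-based dose-response confirmation of ultra-high-throughput screening hits, measuring inhibition of SENP7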
T2 sequence (Q9BQF6 whole entry): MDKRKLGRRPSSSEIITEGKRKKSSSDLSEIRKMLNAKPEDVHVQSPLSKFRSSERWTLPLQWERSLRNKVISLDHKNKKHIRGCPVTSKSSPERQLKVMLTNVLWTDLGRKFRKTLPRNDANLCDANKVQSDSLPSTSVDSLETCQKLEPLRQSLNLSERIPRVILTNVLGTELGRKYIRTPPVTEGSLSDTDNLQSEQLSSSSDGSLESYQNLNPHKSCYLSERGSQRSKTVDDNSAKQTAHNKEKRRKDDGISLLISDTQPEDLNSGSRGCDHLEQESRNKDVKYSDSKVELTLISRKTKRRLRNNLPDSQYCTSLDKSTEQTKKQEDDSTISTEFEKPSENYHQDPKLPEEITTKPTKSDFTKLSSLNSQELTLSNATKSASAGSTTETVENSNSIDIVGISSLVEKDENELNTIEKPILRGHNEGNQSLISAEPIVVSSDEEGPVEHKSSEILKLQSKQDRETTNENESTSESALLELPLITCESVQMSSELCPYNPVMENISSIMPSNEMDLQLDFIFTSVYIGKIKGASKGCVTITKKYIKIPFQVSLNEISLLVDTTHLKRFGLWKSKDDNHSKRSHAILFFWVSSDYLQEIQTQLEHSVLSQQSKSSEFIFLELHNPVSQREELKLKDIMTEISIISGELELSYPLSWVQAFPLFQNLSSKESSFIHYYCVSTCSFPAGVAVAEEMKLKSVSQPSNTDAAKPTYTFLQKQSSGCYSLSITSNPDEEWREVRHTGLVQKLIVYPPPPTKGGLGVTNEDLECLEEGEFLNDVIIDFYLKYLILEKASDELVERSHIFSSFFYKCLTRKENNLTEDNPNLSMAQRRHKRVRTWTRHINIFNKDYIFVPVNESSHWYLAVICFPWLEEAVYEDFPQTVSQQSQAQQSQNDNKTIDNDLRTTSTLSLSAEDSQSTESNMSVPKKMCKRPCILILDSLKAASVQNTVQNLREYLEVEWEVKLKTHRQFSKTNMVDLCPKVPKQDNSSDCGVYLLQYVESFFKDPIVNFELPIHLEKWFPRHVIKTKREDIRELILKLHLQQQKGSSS

[3] = target: T3, Sentrin-specific protease 6 (Homo sapiens, UniProt Q9GZR1); assay type: functional;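 also: Luminescence-based dose-response confirmatory assay of SENP6 inhibition, following up an ultra-high-throughput screen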
T3 sequence (Q9GZR1 whole entry): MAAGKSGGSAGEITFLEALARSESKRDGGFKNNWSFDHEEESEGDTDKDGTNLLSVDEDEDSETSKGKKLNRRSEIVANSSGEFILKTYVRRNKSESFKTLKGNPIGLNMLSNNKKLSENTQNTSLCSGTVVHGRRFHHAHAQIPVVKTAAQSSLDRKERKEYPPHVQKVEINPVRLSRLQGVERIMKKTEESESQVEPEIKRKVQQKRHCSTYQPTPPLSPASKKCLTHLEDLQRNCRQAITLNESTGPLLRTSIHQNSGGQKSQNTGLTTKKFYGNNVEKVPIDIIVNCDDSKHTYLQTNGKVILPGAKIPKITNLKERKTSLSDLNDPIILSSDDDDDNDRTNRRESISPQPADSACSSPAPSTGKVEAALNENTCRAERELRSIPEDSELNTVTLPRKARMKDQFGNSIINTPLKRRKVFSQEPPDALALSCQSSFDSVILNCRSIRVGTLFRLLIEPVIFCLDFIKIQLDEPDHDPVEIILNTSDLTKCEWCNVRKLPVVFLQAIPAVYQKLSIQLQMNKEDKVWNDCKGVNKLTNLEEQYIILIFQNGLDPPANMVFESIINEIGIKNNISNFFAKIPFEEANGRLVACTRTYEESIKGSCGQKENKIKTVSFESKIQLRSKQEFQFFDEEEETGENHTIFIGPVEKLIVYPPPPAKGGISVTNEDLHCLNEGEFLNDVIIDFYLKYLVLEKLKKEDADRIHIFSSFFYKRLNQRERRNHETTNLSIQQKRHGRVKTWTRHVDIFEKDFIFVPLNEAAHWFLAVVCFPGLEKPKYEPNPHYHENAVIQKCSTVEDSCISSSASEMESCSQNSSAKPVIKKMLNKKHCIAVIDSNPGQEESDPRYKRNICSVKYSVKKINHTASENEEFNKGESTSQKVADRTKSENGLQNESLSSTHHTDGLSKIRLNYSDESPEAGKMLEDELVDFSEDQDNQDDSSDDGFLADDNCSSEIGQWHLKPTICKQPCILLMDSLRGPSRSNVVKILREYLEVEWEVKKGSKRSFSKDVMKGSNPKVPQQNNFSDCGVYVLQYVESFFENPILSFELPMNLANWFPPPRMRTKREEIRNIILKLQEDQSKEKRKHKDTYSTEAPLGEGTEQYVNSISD

[4] = target: T4, Sentrin-specific protease 8 (Homo sapiens, UniProt Q96LD8); assay type: functional;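 also: luminescence read-out of SENP8 inhibition, dose-response confirmation following an ultra-high-throughput screen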
T4 sequence (Q96LD8 whole entry): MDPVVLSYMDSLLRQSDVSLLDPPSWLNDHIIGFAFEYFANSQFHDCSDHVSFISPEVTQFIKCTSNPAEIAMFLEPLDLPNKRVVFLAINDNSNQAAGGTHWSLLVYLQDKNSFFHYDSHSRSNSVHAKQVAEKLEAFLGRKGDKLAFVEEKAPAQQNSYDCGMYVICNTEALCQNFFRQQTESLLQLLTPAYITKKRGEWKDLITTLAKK

[5] = viability of uninfected HEp-2 cells – cell-based, HTS, cytotoxicity control for RSV inhibitor project, dose response (AID 2410); assay type: functional; conditions: human respiratory syncytial virus
[6] = target: T5, Ubiquitin-conjugating enzyme E2 N (Homo sapiens, UniProt P61088); assay type: functional;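 also: Dose-response confirmation in a TR-FRET assay detecting UBC13-driven polyubiquitin chain formation, inhibition measured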
T5 sequence (P61088 whole entry): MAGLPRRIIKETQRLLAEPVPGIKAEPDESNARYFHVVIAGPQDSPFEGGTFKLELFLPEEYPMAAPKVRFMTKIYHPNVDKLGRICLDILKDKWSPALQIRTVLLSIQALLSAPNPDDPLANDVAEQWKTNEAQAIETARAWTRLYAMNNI

[7] = target: T6, Polyadenylate-binding protein 1 (Homo sapiens, UniProt P11940); assay: MLLE binding blockers, Cy5 peptide tracer – biochemical, fluorescence polarization, Cy5-PAM2 peptide, secondary, miRNA deadenylation inhibitor project, dose response (AID 602260); assay type: functional; conditions: read-out: IC50_Mean
T6 sequence (P11940 whole entry, the tested form may be a part): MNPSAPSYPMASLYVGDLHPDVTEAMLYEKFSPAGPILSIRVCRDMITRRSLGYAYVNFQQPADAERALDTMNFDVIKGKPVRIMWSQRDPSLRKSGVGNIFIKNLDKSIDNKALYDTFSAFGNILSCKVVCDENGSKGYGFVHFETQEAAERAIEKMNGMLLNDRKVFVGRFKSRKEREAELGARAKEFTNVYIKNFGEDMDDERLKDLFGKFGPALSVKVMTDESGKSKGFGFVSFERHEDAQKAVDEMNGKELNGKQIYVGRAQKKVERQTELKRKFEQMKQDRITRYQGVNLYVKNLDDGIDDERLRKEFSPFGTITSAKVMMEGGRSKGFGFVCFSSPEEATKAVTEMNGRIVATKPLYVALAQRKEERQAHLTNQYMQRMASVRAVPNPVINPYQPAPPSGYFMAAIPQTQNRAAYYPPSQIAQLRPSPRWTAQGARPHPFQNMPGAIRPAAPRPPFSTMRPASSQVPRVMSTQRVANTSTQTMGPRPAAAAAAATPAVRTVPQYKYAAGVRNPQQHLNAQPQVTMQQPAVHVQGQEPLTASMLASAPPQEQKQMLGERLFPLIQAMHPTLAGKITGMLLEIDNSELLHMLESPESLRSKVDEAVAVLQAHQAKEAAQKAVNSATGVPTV

[8] = target: T6, Polyadenylate-binding protein 1; assay: MLLE domain peptide-binding blockers, IC50 – biochemical, fluorescence polarization, FITC-PAM2 peptide, dose response (AID 602259); assay type: functional; conditions: read-out: IC50_Mean
[9] = tested on: Vero; assay: cells; assay type: functional; conditions: Chlorocebus sabaeus
[10] = target: T7, Caspase-6 (Homo sapiens, UniProt P55212); assay: inhibition of CASP6 peptide cleavage – biochemical, VEID-R110 fluorescence, cherry-pick, dose response (AID 720632)
T7 sequence (P55212 whole entry): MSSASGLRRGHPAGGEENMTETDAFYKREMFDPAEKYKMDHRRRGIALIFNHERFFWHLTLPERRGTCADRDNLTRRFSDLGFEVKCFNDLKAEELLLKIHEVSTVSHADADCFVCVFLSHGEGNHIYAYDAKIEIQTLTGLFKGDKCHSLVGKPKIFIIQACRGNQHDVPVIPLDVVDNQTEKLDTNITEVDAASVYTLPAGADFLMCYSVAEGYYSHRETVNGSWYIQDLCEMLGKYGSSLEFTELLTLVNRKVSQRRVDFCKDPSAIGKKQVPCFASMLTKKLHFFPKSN

[11] = target: T8, Long-chain-fatty-acid--AMP ligase FadD28 (Mycobacterium tuberculosis, UniProt P9WQ59); assay: Fluorescence polarization aasay to screen for inhibitors that compete for the binding of FadD28 to a bisubstrate Measured in Biochemical System Using Plate Reader - 2147-01_Inhibitor_Dose_CherryPick_Activity.; assay type: functional, Mycobacterium tuberculosis H37Rv
T8 sequence (P9WQ59 whole entry): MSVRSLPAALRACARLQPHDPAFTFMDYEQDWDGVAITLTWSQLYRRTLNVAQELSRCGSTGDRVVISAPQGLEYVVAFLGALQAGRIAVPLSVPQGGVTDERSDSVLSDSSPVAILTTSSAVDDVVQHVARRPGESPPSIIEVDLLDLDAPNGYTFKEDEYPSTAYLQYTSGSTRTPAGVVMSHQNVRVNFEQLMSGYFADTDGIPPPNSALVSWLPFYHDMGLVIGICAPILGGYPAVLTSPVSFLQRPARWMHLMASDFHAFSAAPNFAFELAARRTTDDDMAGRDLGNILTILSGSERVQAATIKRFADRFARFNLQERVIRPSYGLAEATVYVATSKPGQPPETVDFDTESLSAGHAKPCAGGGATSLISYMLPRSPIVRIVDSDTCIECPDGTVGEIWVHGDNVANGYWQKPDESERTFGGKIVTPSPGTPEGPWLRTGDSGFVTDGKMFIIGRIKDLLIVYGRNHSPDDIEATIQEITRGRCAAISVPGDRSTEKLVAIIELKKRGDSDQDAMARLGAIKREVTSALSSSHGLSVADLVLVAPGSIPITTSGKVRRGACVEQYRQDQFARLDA

[12] = cells; assay type: functional, cell-based
[13] = Trypanosoma cruzi growth suppression in host cells – NIH3T3 host cells, beta-gal luminescence, confirmation (AID 2044); assay type: functional, cell-based;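 also: intracellular parasites grown in NIH/3T3 mouse fibroblasts as host cells; luminescent beta-galactosidase reporter signal from transgenic T. cruzi replicating inside host cells; inhibitors lower the luminescence signal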
[14] = cells; assay type: functional, cell-based; remark: listed apart in the source
[15] = NIH3T3 cell viability loss – ATP luminescence, mouse fibroblasts, counter-screen, dose response (AID 2010); assay type: functional, cell-based;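 also: cells exposed to compound for about 90 hours before reading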
[16] = tested on: INS1; assay: INS-1E survival protection against cytokine death – cell-based, luminescence, retest, dose response (AID 449756); assay type: functional; conditions: Rattus norvegicus;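 also: cell death triggered by IL-1 beta plus TNF-alpha plus IFN-gamma mixture; protective hits raise ATP signal compared with cytokine alone wells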
[17] = intracellular Trypanosoma cruzi inhibitors in host cells – cell-based, plate reader, cherry-pick samples, set 3, dose response (AID 651818); assay type: functional;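 also: compounds incubated with infected cells for about four days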

## Fc1cccc2sc(N3CCCCC3)nc12
[1]
  IC50: 10.7 µM (active)
[2]
  IC50: 7.98 µM (active)
[3]
  IC50: 30.3 µM (active)
[4]
  IC50: 60.5 µM (active)

## NC(=S)N=Nc1c(O)[nH]c2cc(F)c(F)cc12
[5]
  CC50: 40 µM (active)
[6]
  IC50: > 20 µM (inactive)
[7]
  IC50: > 66 µM (inactive)
[8]
  IC50: > 66 µM (inactive)

## COc1nccnc1NS(=O)(=O)c1ccc(NC(=S)NC(=O)c2ccc(F)cc2)cc1
[7]
  IC50: > 66 µM (inactive)
[8]
  IC50: > 66 µM (inactive)

## CSC1=NC(/C=C/c2ccc(Cl)cc2Cl)=CC(C)(C)N1
[9]
  CC50: 17.4 µM (active)

## CCSc1nc(=S)n(-c2ccccc2)c(C)c1C(C)=O
[7]
  IC50: > 66 µM (inactive)
[8]
  IC50: > 66 µM (inactive)

## CCN(CC)c1ccc(C(=O)OCC(=O)Nc2sccc2C#N)cc1
[1]
  IC50: 37.3 µM (active)
[2]
  IC50: 11.6 µM (active)
[3]
  IC50: 11.5 µM (active)
[4]
  IC50: 89.1 µM (active)

## O=C(Nc1ccccc1[N+](=O)[O-])c1cc(S(=O)(=O)N2CCOCC2)cs1
[9]
  CC50: 18.3 µM (active)

## COc1ccc(-c2nc3cnccn3c2NC(C)(C)CC(C)(C)C)cc1O
[9]
  CC50: > 25 µM (active)

## O=C(NCc1ccccc1Cl)c1ccc2[nH]cnc2c1
[10]
  AC50: 28.1 µM (active)

## COc1ccc(C(=O)NCCc2c[nH]c3ccccc23)cc1S(=O)(=O)N1CCCCC1C (stereo not drawn)
[11]
  AC50: 2.97 µM (active)

## O=C(O)c1ccccc1NS(=O)(=O)c1ccc(NN=Cc2cccc(Cl)c2)c([N+](=O)[O-])c1
[10]
  AC50: 24.5 µM (active)

## COc1ccc(CNC(=O)CN(Cc2ccc(Cl)cc2)C(=O)c2csnn2)cc1
[7]
  IC50: > 66 µM (inactive)
[8]
  IC50: > 66 µM (inactive)

## O=C(CSC1c2ccccc2-c2ccccc21)N/N=C/c1ccccc1O
[12]
  EC50: 12.9 µM (active)
[13]
  EC50: 2.55 µM (active)
[14]
  EC50: > 350 µM (not active)
[15]
  EC50: 9.08 µM (active)
[16]
  AC50: 2.03 µM (active)
[7]
  IC50: > 66 µM (inactive)
[8]
  IC50: > 66 µM (inactive)

## COc1ccc(S(=O)(=O)Nc2ccc3c(c2)CC(=O)N([C@@H](C)CO)C[C@H](C)[C@@H](CN(C)Cc2ccc(-c4ccccc4)cc2)O3)cc1
[17]
  AC50: 2.07 µM (active)

## CCc1nc2ccc(C(=O)NCCCn3ccnc3)cn2c1N(C)Cc1cc2ccccc2s1
[11]
  AC50: 74.3 µM (active)

## C[C@H]1CN([C@@H](C)CO)C(=O)Cc2cc(NC(=O)Cc3ccccc3)ccc2O[C@H]1CN(C)Cc1ccc(-c2ccccc2)cc1
[17]
  AC50: 2.79 µM (active)

## C[C@@H]1CN([C@H](C)CO)C(=O)c2cccc(NS(=O)(=O)c3cccs3)c2O[C@@H]1CN(C)C(=O)Nc1ccc(C(F)(F)F)cc1
[17]
  AC50: 8.07 µM (active)

## C[C@@H]1CN([C@H](C)CO)C(=O)Cc2cc(NS(=O)(=O)c3ccc(Cl)cc3)ccc2O[C@@H]1CN(C)Cc1ccc(Cl)c(Cl)c1
[17]
  AC50: 3.44 µM (active)

## C[C@H]1CN([C@@H](C)CO)C(=O)c2cc(NC(=O)Nc3ccc(C(F)(F)F)cc3)ccc2O[C@H]1CN(C)Cc1ccc2c(c1)OCO2
[17]
  AC50: 4.18 µM (active)

## C[C@@H]1CN([C@H](C)CO)C(=O)c2cc(NC(=O)Nc3cccc4ccccc34)ccc2O[C@H]1CN(C)Cc1ccc(-c2ccccc2)cc1
[17]
  AC50: 2.17 µM (active)
